Laboratory results taken from PubChem BioAssay AID1963961 (Molecular Pharmacology Branch, DTP, NCI, 2024).

Tested on: K98450-129-R-PDC multicell spheroids, viability
Test: Anticancer human tumor K98450-129-R-PDC patient-derived colon adenocarcinoma cell line growth inhibition [PI3K]
Settings: for viability, T/C: stronger effect = lower value; active = viability on the fitted dose curve at most 10% of control; inactive = the rest
In short: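 Viability of mixed-cell spheroids was determined after exposure to pairwise combinations, one partner being inavolisib, alpelisib, duvelisib or copanlisib. Highest tested concentration matched clinical Cmax where known and 10 microM where not, descending in half-log steps.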

[1] = curve of first compound, second compound 0.00316 µM
[2] = curve of first compound, second compound 0.01 µM
[3] = curve of first compound, second compound 0.0316 µM
[4] = curve of first compound, second compound 0.1 µM
[5] = curve of first compound, second compound 0.316 µM
[6] = curve of first compound, second compound 1 µM
[7] = second compound 0.00316 µM, first compound 0.0316 µM
[8] = second compound 0.00316 µM, first compound 0.1 µM
[9] = second compound 0.01 µM, first compound 0.0316 µM
[10] = second compound 0.01 µM, first compound 0.1 µM
[11] = second compound 0.0316 µM, first compound 0.000316 µM
[12] = second compound 0.0316 µM, first compound 0.001 µM
[13] = second compound 0.0316 µM, first compound 0.00316 µM
[14] = second compound 0.0316 µM, first compound 0.01 µM
[15] = second compound 0.0316 µM, first compound 0.0316 µM
[16] = second compound 0.0316 µM, first compound 0.1 µM
[17] = second compound 0.1 µM, first compound 0.000316 µM
[18] = second compound 0.1 µM, first compound 0.001 µM
[19] = second compound 0.1 µM, first compound 0.00316 µM
[20] = second compound 0.1 µM, first compound 0.01 µM
[21] = second compound 0.1 µM, first compound 0.0316 µM
[22] = second compound 0.1 µM, first compound 0.1 µM
[23] = second compound 0.316 µM, first compound 0.000316 µM
[24] = second compound 0.316 µM, first compound 0.001 µM
[25] = second compound 0.316 µM, first compound 0.00316 µM
[26] = second compound 0.316 µM, first compound 0.01 µM
[27] = second compound 0.316 µM, first compound 0.0316 µM
[28] = second compound 0.316 µM, first compound 0.1 µM
[29] = second compound 1 µM, first compound 0.000316 µM
[30] = second compound 1 µM, first compound 0.001 µM
[31] = second compound 1 µM, first compound 0.00316 µM
[32] = second compound 1 µM, first compound 0.01 µM
[33] = second compound 1 µM, first compound 0.0316 µM
[34] = second compound 1 µM, first compound 0.1 µM
[35] = curve of first compound, second compound 3.16 µM
[36] = curve of first compound, second compound 10 µM
[37] = second compound 3.16 µM, first compound 0.0316 µM
[38] = second compound 3.16 µM, first compound 0.1 µM
[39] = second compound 10 µM, first compound 0.0316 µM
[40] = second compound 10 µM, first compound 0.1 µM
[41] = second compound 0.0316 µM, first compound 0.316 µM
[42] = second compound 0.0316 µM, first compound 1 µM
[43] = second compound 0.0316 µM, first compound 3.16 µM
[44] = second compound 0.0316 µM, first compound 10 µM
[45] = second compound 0.1 µM, first compound 0.316 µM
[46] = second compound 0.1 µM, first compound 1 µM
[47] = second compound 0.1 µM, first compound 3.16 µM
[48] = second compound 0.1 µM, first compound 10 µM
[49] = second compound 0.316 µM, first compound 0.316 µM
[50] = second compound 0.316 µM, first compound 1 µM
[51] = second compound 0.316 µM, first compound 3.16 µM
[52] = second compound 0.316 µM, first compound 10 µM
[53] = second compound 1 µM, first compound 0.316 µM
[54] = second compound 1 µM, first compound 1 µM
[55] = second compound 1 µM, first compound 3.16 µM
[56] = second compound 1 µM, first compound 10 µM
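Also: spheroids exposed to agents for seven days before read-out.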

CC(C)n1nc(-c2ccc3oc(N)nc3c2)c2c(N)ncnc21 + CC(Nc1ccc2c(c1)OCCn1cc(N3C(=O)OCC3C(F)F)nc1-2)C(N)=O
> 100 nM: IC50 [1] | IC50 [2] | IC50 [3] | IC50 [4] | IC50 [5] | IC50 [6]
inactive: viability, T/C (second compound 0.00316 µM, first compound 0.000316 µM) 106% | viability, T/C (second compound 0.00316 µM, first compound 0.001 µM) 93.9% | viability, T/C (second compound 0.00316 µM, first compound 0.00316 µM) 97.1% | viability, T/C (second compound 0.00316 µM, first compound 0.01 µM) 94.7% | viability, T/C [7] 90.3% | viability, T/C [8] 78.8% | viability, T/C (second compound 0.01 µM, first compound 0.000316 µM) 115% | viability, T/C (second compound 0.01 µM, first compound 0.001 µM) 100% | viability, T/C (second compound 0.01 µM, first compound 0.00316 µM) 103% | viability, T/C (second compound 0.01 µM, first compound 0.01 µM) 91.1% | viability, T/C [9] 96.1% | viability, T/C [10] 77.2% | viability, T/C [11] 99% | viability, T/C [12] 98.9% | viability, T/C [13] 99.4% | viability, T/C [14] 94.5% | viability, T/C [15] 96.5% | viability, T/C [16] 74% | viability, T/C [17] 100% | viability, T/C [18] 102% | viability, T/C [19] 95.4% | viability, T/C [20] 91.3% | viability, T/C [21] 93.1% | viability, T/C [22] 71.5% | viability, T/C [23] 93.1% | viability, T/C [24] 93.2% | viability, T/C [25] 99.7% | viability, T/C [26] 88.2% | viability, T/C [27] 79.1% | viability, T/C [28] 77.7% | viability, T/C [29] 87.2% | viability, T/C [30] 89.7% | viability, T/C [31] 81.3% | viability, T/C [32] 82.2% | viability, T/C [33] 80.9% | viability, T/C [34] 67.1%

Cn1ncnc1[C@H]1c2n[nH]c(=O)c3cc(F)cc(c23)N[C@@H]1c1ccc(F)cc1 + Cc1nc(NC(=O)N2CCCC2C(N)=O)sc1-c1ccnc(C(C)(C)C(F)(F)F)c1
inactive: viability, T/C [11] 110% | viability, T/C [12] 108% | viability, T/C [13] 109% | viability, T/C [14] 97.3% | viability, T/C [15] 101% | viability, T/C [16] 96.3% | viability, T/C [17] 108% | viability, T/C [18] 99.2% | viability, T/C [19] 106% | viability, T/C [20] 100% | viability, T/C [21] 102% | viability, T/C [22] 97.6% | viability, T/C [23] 96.5% | viability, T/C [24] 99% | viability, T/C [25] 99.9% | viability, T/C [26] 97.8% | viability, T/C [27] 104% | viability, T/C [28] 87.3% | viability, T/C [29] 89.4% | viability, T/C [30] 98.1% | viability, T/C [31] 95.2% | viability, T/C [32] 90.7% | viability, T/C [33] 101% | viability, T/C [34] 91.9% | viability, T/C (second compound 3.16 µM, first compound 0.000316 µM) 85% | viability, T/C (second compound 3.16 µM, first compound 0.001 µM) 89.4% | viability, T/C (second compound 3.16 µM, first compound 0.00316 µM) 86.9% | viability, T/C (second compound 3.16 µM, first compound 0.01 µM) 86% | viability, T/C [37] 91.6% | viability, T/C [38] 80.3% | viability, T/C (second compound 10 µM, first compound 0.000316 µM) 72.4% | viability, T/C (second compound 10 µM, first compound 0.001 µM) 73.1% | viability, T/C (second compound 10 µM, first compound 0.00316 µM) 75.7% | viability, T/C (second compound 10 µM, first compound 0.01 µM) 71.5% | viability, T/C [39] 74.8% | viability, T/C [40] 70.2%
> 100 nM: IC50 [3] | IC50 [4] | IC50 [5] | IC50 [6] | IC50 [35] | IC50 [36]

CC(C)n1nc(-c2ccc3oc(N)nc3c2)c2c(N)ncnc21
> 100 nM: IC50 (curve of compound)
inactive: viability, T/C (compound 0.000316 µM) 103% [middle of 4 runs] | viability, T/C (compound 0.001 µM) 104% [middle of 4 runs] | viability, T/C (compound 0.00316 µM) 99.9% [middle of 4 runs] | viability, T/C (compound 0.01 µM) 98.2% [middle of 4 runs] | viability, T/C (compound 0.0316 µM) 95.5% [middle of 4 runs] | viability, T/C (compound 0.1 µM) 78.2% [middle of 4 runs]

C[C@@H](NC(=O)c1ncnc(N)c1Cl)c1ncc(C(=O)Nc2cc(C(F)(F)F)c(Cl)cn2)s1 + Cc1nc(NC(=O)N2CCCC2C(N)=O)sc1-c1ccnc(C(C)(C)C(F)(F)F)c1
> 10000 nM: IC50 [3] | IC50 [4] | IC50 [5] | IC50 [6] | IC50 [35] | IC50 [36]
inactive: viability, T/C [15] 104% | viability, T/C [16] 106% | viability, T/C [41] 119% | viability, T/C [42] 117% | viability, T/C [43] 112% | viability, T/C [44] 103% | viability, T/C [21] 117% | viability, T/C [22] 98.2% | viability, T/C [45] 119% | viability, T/C [46] 104% | viability, T/C [47] 112% | viability, T/C [48] 104% | viability, T/C [27] 107% | viability, T/C [28] 104% | viability, T/C [49] 106% | viability, T/C [50] 108% | viability, T/C [51] 110% | viability, T/C [52] 103% | viability, T/C [33] 92.6% | viability, T/C [34] 99% | viability, T/C [53] 105% | viability, T/C [54] 102% | viability, T/C [55] 111% | viability, T/C [56] 90% | viability, T/C [37] 84.8% | viability, T/C [38] 90.3% | viability, T/C (second compound 3.16 µM, first compound 0.316 µM) 96.5% | viability, T/C (second compound 3.16 µM, first compound 1 µM) 91.7% | viability, T/C (second compound 3.16 µM, first compound 3.16 µM) 95.8% | viability, T/C (second compound 3.16 µM, first compound 10 µM) 75.1% | viability, T/C [39] 76.5% | viability, T/C [40] 74.3% | viability, T/C (second compound 10 µM, first compound 0.316 µM) 83.7% | viability, T/C (second compound 10 µM, first compound 1 µM) 76.8% | viability, T/C (second compound 10 µM, first compound 3.16 µM) 72.5% | viability, T/C (second compound 10 µM, first compound 10 µM) 58.5%

CC(Cn1ccc(-c2ccc(C#N)c(Cl)c2)n1)NC(=O)c1cc(C(C)O)[nH]n1 (stereo not given) + COc1c(OCCCN2CCOCC2)ccc2c3n(c(=NC(=O)c4cnc(N)nc4)nc12)CCN3
4900 nM: IC50 [6]
> 10000 nM: IC50 [1] | IC50 [2] | IC50 [3] | IC50 [4] | IC50 [5]
inactive: viability, T/C [7] 102% | viability, T/C [8] 97.7% | viability, T/C (second compound 0.00316 µM, first compound 0.316 µM) 117% | viability, T/C (second compound 0.00316 µM, first compound 1 µM) 104% | viability, T/C (second compound 0.00316 µM, first compound 3.16 µM) 107% | viability, T/C (second compound 0.00316 µM, first compound 10 µM) 111% | viability, T/C [9] 116% | viability, T/C [10] 95% | viability, T/C (second compound 0.01 µM, first compound 0.316 µM) 105% | viability, T/C (second compound 0.01 µM, first compound 1 µM) 102% | viability, T/C (second compound 0.01 µM, first compound 3.16 µM) 90.7% | viability, T/C (second compound 0.01 µM, first compound 10 µM) 89.5% | viability, T/C [15] 88.9% | viability, T/C [16] 92.9% | viability, T/C [41] 80.5% | viability, T/C [42] 89.6% | viability, T/C [43] 93.1% | viability, T/C [44] 75.8% | viability, T/C [21] 74.9% | viability, T/C [22] 79% | viability, T/C [45] 82.1% | viability, T/C [46] 95.2% | viability, T/C [47] 90% | viability, T/C [48] 71.1% | viability, T/C [27] 47.2% | viability, T/C [28] 59.4% | viability, T/C [49] 64.2% | viability, T/C [50] 62.1% | viability, T/C [51] 72.1% | viability, T/C [52] 43.6% | viability, T/C [33] 48.5% | viability, T/C [34] 59.8% | viability, T/C [53] 63.2% | viability, T/C [54] 52.1% | viability, T/C [55] 54.2% | viability, T/C [56] 44%
